Results on one compound are retold here after patent US20060147569A1, “Anti-depression formulations” (priority 2005, published 2006).

The target of one assay is T1, brain MAO-B (Rattus norvegicus, UniProt P19643).
T1 construct: Rat brain mitochondrial fractions were prepared; from tissue; host or cells: rat brain mitochondrial fraction
T1 sequence (P19643 1-520): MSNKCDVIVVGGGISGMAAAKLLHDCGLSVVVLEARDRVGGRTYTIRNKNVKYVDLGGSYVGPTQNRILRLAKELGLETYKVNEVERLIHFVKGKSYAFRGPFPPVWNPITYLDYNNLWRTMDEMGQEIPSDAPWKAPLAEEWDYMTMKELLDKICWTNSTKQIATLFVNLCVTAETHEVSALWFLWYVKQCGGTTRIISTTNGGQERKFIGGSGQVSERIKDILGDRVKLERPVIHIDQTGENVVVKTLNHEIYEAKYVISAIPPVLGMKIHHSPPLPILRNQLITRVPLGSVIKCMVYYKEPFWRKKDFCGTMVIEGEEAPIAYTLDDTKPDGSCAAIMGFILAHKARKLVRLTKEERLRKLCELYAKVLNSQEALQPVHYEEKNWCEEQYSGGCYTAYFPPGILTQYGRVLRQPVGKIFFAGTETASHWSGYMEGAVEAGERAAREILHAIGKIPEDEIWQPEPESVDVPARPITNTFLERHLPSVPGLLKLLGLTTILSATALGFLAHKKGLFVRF
Put plainly: Brain MAO-B activity in CMS-treated rats. Particulars: brain of CMS-treated rats, 10 mg/kg oral daily for 6 weeks. Format: in vivo. The procedure:
(§1) 3. Administration and Doses • Non CMS-treated Saline group: 10 ml/kg/day. • CMS-treated Saline group: 10 ml/kg/day. • Composition I (200) group: 200 mg/kg/day. • Composition I (150) group: 150 mg/kg/day. • Fluoxetine group (positive control): 10 mg/kg/day.
(§2) Animals therein were divided randomly into the following four subgroups: • (1) Composition I (200) group: received composition I at 200 mg/kg/day; • (2) Composition I (150) group: received composition I at 150 mg/kg/day; • (3) Fluoxetine group: received fluoxetine 10 mg/kg/day; (positive control); • (4) CMS-treated saline group: received saline 10 mL/kg/day. (negative control).
24 h after the last test of sucrose intake, between 10:00 a.m. and 11:00 a.m., all animals were decapitated quickly to get venous blood. Serum was separated by centrifugation at 3000 rpm and stored at −20° C. until assay of cortisol concentration. Brain tissues were rapidly removed on the ice-plate. The tissues were washed with cold saline, blotted dry and stored at −80° C. until assays of monoamine oxidase A and B (MAO-A and MAO-B) activity.
Rat brain mitochondrial fractions were prepared following the procedure described in Schurr and Livne, 1976. MAO activity was assessed by spectrophotometer as described in Yu et al., 2002. […] The organic phase was measured at wavelength of 280 nm and 242 nm for MAO-A and MAO-B assay with spectrophotometer, respectively. […]

A further assay has as its system CMS-treated rats. Description: Sucrose intake test in chronic mild stress (CMS) model. The format is in vivo. Particulars: for sucrose intake: CMS-treated rats, 10 mg/kg oral daily.
Source text: In the CMS model, rats are exposed sequentially, over a period of weeks, to a variety of mild stressors, and the measure most commonly used to track the effects is a decrease in consumption of a palatable sweet solution. This […] of antidepressants to increase sucrose intake in CMS model of rats. […] These impairments could be reversed by chronic administration of antidepressants such as tricyclic antidepressants, selective serotonin reuptake inhibitors and monoamine oxidase inhibitors. […] (Willner P. 1997)
Male Wistar rats, weighing 180-220 g at the start of the experiment, were used in the experiments. During the one week before experiment, each rat was housed individually in a home cage, and had free access to food and water. They were maintained on a 12 h light/dark cycle under controlled temperature 25±2° C. and tested in the light phase.
as §1
The above substances at various concentrations were dissolved in saline. The volume of the suspension administered was based on body weight measured immediately prior to each dose, respectively. All groups were administered orally for six weeks, once per day. All groups except for Non-CMS-treated saline group received CMS treatment as described below.
All animals were trained to consume 1% (w/v) sucrose solution in water. The training was conducted twice a week for consecutive 3 weeks. In the training, the rats in the home cage were deprived of food and water for 14 hours. After 14 hours, about 30 ml of 1% (w/v) sucrose solution in a pre-weighed bottled was placed in the home cages. 1 hour later, the bottle was taken out from the cage and weighed. The sucrose intake was calculated as follows: […]
Calculation: Weight of Bottle Before Intake (g)—Weight of Bottle After Intake (g)
After three weeks of training, when the sucrose intake of rats was stabilized, the rats started to receive further treatment. During the whole treatment period, the sucrose intakes of rats were monitored once every week from 9:00 a.m. to 10:00 a.m. with the same procedures as described above.
After the three-weeks training, the rats were randomly divided into two groups: the non-CMS treated group and CMS-treated group. The stress group of animals was subjected to the CMS procedure for a period of four consecutive weeks. Each week of stress regime is consisted of six different stress situations. They involved two periods of food and water deprivation, two periods of 45 o cage tilt, two periods of intermittent illumination (lights on and off every 2 h), two periods of soiled cage (200 mL water in sawdust bedding), two periods of paired housing, and two periods of low intensity stroboscopic illumination (150 flashes/min). All of the stressors were 12-14 h of duration and were applied individually and sequentially, day and night.
as §2
The rats in non-CMS treated group received saline solution at 10 mL/kg orally. All administrations were given orally once daily at 10:00 a.m. for consecutive 6 weeks.

Where a name gives a salt, the structure may show the parent alone.

Consider `CNCCC(Oc1ccc(C(F)(F)F)cc1)c1ccccc1` (stereo not shown) [Fluoxetine, Fluoxetine Hydrochloride], for which, on brain MAO-B, the “MAO activity B” value stood at 54.50 ± 3.56 U/g protein. The inhibition – broadly, how much of the control response was suppressed – at 10 mg/kg on brain MAO-B (rat) stood at 54%. Besides, in the assay on CMS-treated rats (CMS rats, fluoxetine-treated (10 mg/kg)), the “recovery of the sucrose intake (in words)” value is on record as “not as strong as those treated with Composition (I)”. Also, the sucrose intake is reported as 5.3 ± 1.4 g in the assay on CMS-treated rats (week 0 of drug treatment); 5.5 ± 1.3 g in the assay with CMS-treated rats (week 1); 5.9 ± 1.4 g in the assay with CMS-treated rats (week 2); 7.3 ± 1.5 g in the assay with CMS-treated rats (week 3); 8.9 ± 1.1 g with CMS-treated rats (week 4); 10.4 ± 1.3 g in the assay with CMS-treated rats (week 5). Further, the sucrose intake with CMS-treated rats (week 6) is listed as 13.9 ± 1.3 g.
